Experimental data reported in paper PMC10157742, “Supramolecular nanofibers co-loaded with dabrafenib and doxorubicin for targeted and synergistic therapy of differentiated thyroid carcinoma” (Theranostics, 2023).

Columns and labels:
[1] = system: BCPAP cells; assay: Cell apoptosis analysis, Annexin V-APC/7-AAD flow cytometry; type: cell-based, human; settings: 36 h, 0.5 µM (Dox or Da)
Protocol: Apoptosis in BCPAP cells was measured using an Annexin V-APC/7-AAD Apoptosis Detection Kit. Briefly, BCPAP cells in DMEM were seeded into 6-well plates at a density of 3×10^5 cells per well and incubated overnight. After treatment with PBS and Dox concentration of 0.5 µM for 36 h, the cells were trypsinized, collected, washed twice with cold PBS, and centrifuged at 1500 rpm for 5 min. The precipitated cells were resuspended in 500 μL Annexin V-APC binding buffer and incubated with 5 μL Annexin V-APC and 5 μL 7-AAD at room temperature for 15 min in the dark. The samples were then analyzed using a flow cytometer.

[2] = system: BCPAP cells; assay: In vitro cytotoxicity, MTT assay; type: cell-based; settings: Homo sapiens, 48 h, Da/Dox mass ratio 1:1, value given for Dox, n = 3
Protocol: The cytotoxicity of peptides, free agents, and the co-assemblies towards BCPAP and L02 cells was evaluated using the standard MTT assay. Briefly, the cells were seeded into 96-well plates at a density of 8×10^3 cells per well in 100μL of DMEM medium containing 10% FBS and 1% penicillin-streptomycin. After overnight pre-incubation, the cells were treated with the compound, free agents, and co-assemblies at different concentrations for 48 h. Untreated tumor cells were used as controls. Subsequently, the medium was replaced with an MTT solution (100 μL, 0.5 mg/mL) and further cultured for 4 h. Finally, the supernatant was removed and 100 μL of DMSO was added to each well to dissolve the purple crystals. Cell viability was measured using a microplate reader by recording the absorbance of the formazan product at 570 nm.

[3] = system: BCPAP xenograft; assay: In vivo antitumor activity; settings: NSG mice, i.v. every four days five times, 0.5 mg/kg Dox or Da, day 20, mean ± SD, n = 4
Protocol: (§1) All animal experiments were performed according to the protocol approved by the Animal Care and Use Committee of the Tianjin Medical University Cancer Institute and Hospital. NSG mice (5 weeks, female) were purchased from Gempharmatech Co., Ltd. (Jiangsu, China). […] The body weight and tumor size of each mouse were monitored and recorded every two days during the treatment process of 20 days. The tumor volume (V) was measured with a digital caliper and calculated using the equation: V= (L×W^2)/2, where W and L refer to the […] diameters of the tumors, respectively. At the end of the experiment, the mice were euthanized, and the tumor tissues and main organs (heart, liver, spleen, lung, and kidney) were photographed, weighed, and collected. Furthermore, the collected ex vivo tumors and main organs were fixed with 4% paraformaldehyde for the subsequent hematoxylin and eosin (H&E), terminal deoxynucleotidyl transferase-mediated deoxyuridine triphosphate nick end labeling (TUNEL), and immunohistochemical staining, including Ki67, BRAF V600E, p-ERK, Bcl-2, Bax and Cleaved-Caspase 3. Blood was obtained from the mouse eye socket for blood biochemistry and routine blood analysis, which was compared with the blank group without tumor inoculation.

[4] = Body weight and serum ALT in the antitumor study; type: in vivo; settings: tumor-bearing NSG mice, n = 4
Protocol: as §1

Row | Structure (SMILES) | total apoptosis rate [1] [%] | IC50 [2] [nM] | tumor weight at the end of the experiment [3] [mg] | body weight ([4]; 0.5 mg/kg i.v. every four days five times, 20 days) | serum glutamic pyruvic transaminase (ALT) level ([4]; end of the antitumor experiment)
1 | CC(C)(C)c1nc(-c2cccc(NS(=O)(=O)c3c(F)cccc3F)c2F)c(-c2ccnc(N)n2)s1 [Da, dabrafenib] | 5.17 | 2080 | 459.6 ± 43.2 | – | –
2 | COc1cccc2c1C(=O)c1c(O)c3c(c(O)c1C2=O)C[C@@](O)(C(=O)CO)C[C@@H]3O[C@H]1C[C@H](N)[C@H](O)[C@H](C)O1 [Dox, doxorubicin] | 7.08 | 1720 | 284.7 ± 36.4 | slight decrease | elevated ALT levels
